In the NIST ThermoML archive (doi:10.1016/j.jct.2015.08.014):

Assay: xn = mol fraction of the nth substance listed
Settings: 283.15 K, 100 kPa, Liquid, Alternating current cell with electrodes

CCCC[N+]1(C)CCCC1.N#CN=C=[N-] [1-butyl-1-methylpyrrolidinium dicyanamide] + O=C1CCCO1
electrical conductivity [S/m]
Settings | Frequency=0.003 MHz | Frequency=0.00347222 MHz | Frequency=0.004 MHz | Frequency=0.00446429 MHz | Frequency=0.005 MHz | Frequency=0.005454 MHz | Frequency=0.006 MHz | Frequency=0.00652174 MHz | Frequency=0.00694444 MHz | Frequency=0.0075 MHz
x1 = 0.0463 | – | 1.17 | 1.17 | 1.17 | 1.17 | 1.17 | 1.17 | 1.17 | 1.17 | 1.17
x1 = 0.0987 | – | 1.73 | 1.73 | 1.73 | 1.73 | 1.73 | 1.73 | 1.73 | 1.73 | 1.73
x1 = 0.1449 | – | 1.93 | 1.93 | 1.93 | 1.93 | 1.93 | 1.93 | 1.93 | 1.93 | 1.93
x1 = 0.1859 | 2.028 | 2.028 | 2.028 | 2.028 | 2.028 | 2.028 | 2.028 | 2.028 | 2.028 | 2.028
x1 = 0.2493 | 1.925 | 1.925 | 1.926 | 1.926 | 1.926 | 1.926 | 1.926 | 1.926 | 1.926 | 1.926
x1 = 0.3029 | 1.84 | 1.84 | 1.84 | 1.84 | 1.84 | 1.84 | 1.84 | 1.84 | 1.84 | 1.84
x1 = 0.3845 | 1.66 | 1.66 | 1.66 | 1.66 | 1.66 | 1.66 | 1.66 | 1.66 | 1.66 | 1.66
x1 = 0.4985 | 1.407 | 1.407 | 1.407 | 1.407 | 1.407 | 1.407 | 1.407 | 1.407 | 1.407 | 1.407
x1 = 0.6954 | 1.07 | 1.07 | 1.07 | 1.07 | 1.07 | 1.07 | 1.07 | 1.07 | 1.07 | 1.07
x1 = 0.9013 | 0.849 | 0.849 | 0.849 | 0.849 | 0.849 | 0.849 | 0.849 | 0.849 | 0.849 | 0.849
x1 = 1 | 0.786 | 0.786 | 0.786 | 0.786 | 0.786 | 0.786 | 0.786 | 0.786 | 0.786 | 0.786
